Data as given in paper PMC10314922, “Fluorescence lifetime FRET assay for live-cell high-throughput screening of the cardiac SERCA pump yields multiple classes of small-molecule allosteric modulators” (Scientific Reports, 2023).
Where “and” joins values, the source holds several entries; their conditions need not be identical. Equal entries are not always repeated. Entries after “also recorded” stand apart in the source; their conditions may differ.

Assays:
SERCA2a [1] = biological target: T1, SERCA2a (Sus scrofa, UniProt P11607); assay: Oxalate-supported Fluo-4 Ca2+-uptake (Ca2+-transport) assay in pig cardiac SR (pCSR) vesicles; assay type: biochemical; conditions: for Ca2+-Uptake C10: concentration yielding 10% effect; for CR (coupling ratio) VU/VA: maximum Ca2+-uptake rate / Ca2+-ATPase rate at [Ca2+]MAX, DMSO control = 0.66; for Effect on Ca2+-uptake (category, Fig. 4A): activators, categories activate / uncouple / inhibit
T1 construct: Cardiac SR vesicles were isolated from fresh porcine left ventricular tissue using differential centrifugation; from tissue; host or cells: porcine left ventricular tissue (cardiac SR vesicles)
T1 sequence (P11607 1-997 isoform P11607-2): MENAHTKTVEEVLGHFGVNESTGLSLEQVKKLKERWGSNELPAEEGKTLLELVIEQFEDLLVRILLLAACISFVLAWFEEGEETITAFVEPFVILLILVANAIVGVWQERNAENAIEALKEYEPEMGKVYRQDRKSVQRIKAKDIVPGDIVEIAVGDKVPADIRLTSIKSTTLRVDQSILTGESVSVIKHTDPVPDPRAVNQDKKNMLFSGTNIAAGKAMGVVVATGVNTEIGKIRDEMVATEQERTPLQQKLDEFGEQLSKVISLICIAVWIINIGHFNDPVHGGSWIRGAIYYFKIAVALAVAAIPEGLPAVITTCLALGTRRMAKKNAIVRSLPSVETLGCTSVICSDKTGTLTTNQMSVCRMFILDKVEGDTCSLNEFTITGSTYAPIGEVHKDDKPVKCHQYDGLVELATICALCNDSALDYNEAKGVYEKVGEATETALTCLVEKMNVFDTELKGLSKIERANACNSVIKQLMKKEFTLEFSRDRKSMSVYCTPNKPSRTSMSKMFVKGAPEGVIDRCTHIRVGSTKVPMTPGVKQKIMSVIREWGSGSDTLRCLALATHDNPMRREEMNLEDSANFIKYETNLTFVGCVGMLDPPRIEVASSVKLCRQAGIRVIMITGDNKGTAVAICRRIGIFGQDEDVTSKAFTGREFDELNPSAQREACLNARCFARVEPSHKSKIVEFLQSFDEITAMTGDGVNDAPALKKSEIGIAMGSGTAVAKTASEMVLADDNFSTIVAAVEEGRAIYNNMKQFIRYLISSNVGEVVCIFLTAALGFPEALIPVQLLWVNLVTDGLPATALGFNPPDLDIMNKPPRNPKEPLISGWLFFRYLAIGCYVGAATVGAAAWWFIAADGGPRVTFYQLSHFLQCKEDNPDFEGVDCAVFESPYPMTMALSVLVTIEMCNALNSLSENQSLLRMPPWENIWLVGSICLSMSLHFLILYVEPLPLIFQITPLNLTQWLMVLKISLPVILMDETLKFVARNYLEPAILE
Description: (§1) Cardiac SR vesicles were isolated from fresh porcine left ventricular tissue using differential centrifugation of the homogenized tissue as previously described. The SR vesicles were flash-frozen and stored at − 80 °C until needed. The SERCA concentration in the ER preparations purified from HEK cell homogenate is at least 10 times less than in purified porcine cardiac SR[20], but there was sufficient expression of the fluorescent SERCA2a biosensor in HEK cells to detect FRET with high precision by FLT[22],[23],[26].
Ca^2+-transport assays were performed with similar porcine SR samples as in the Ca^2+-ATPase assays described above. The compound effect on the Ca^2+-transport activity of SERCA2a was determined using an oxalate-supported assay in which the change in fluorescence in a Ca^2+-sensitive dye, Fluor-4, was determined as previously described. A buffered solution containing 50 mM MOPS (pH 7.0), 100 mM KCl, 30 mg/mL sucrose, 1 mM EGTA, 10 mM potassium oxalate, 2 µM Fluo-4, 30 µg/mL porcine cardiac SR vesicles, CaCl2 calculated to reach the free [Ca^2+] (pCa 8.0, 6.2, and 5.4), and compound (0.048 to 50 μM) was dispensed into 384-well black walled, transparent bottomed plates (Greiner Bio-One) containing the tested small molecule and incubated at 22℃ for 20 min while covered and protected from light. To start the reaction, MgATP was added to a final concentration of 5 mM, and the decrease in 485-nm excited fluorescence of Fluo-4 was monitored at 520 nm for 15 min using a FLIPR Tetra (Molecular Devices, San Jose, CA).
(§2) SERCA2a activity, F (rate of ATP hydrolysis or Ca^2+ uptake), was measured at varying pCa and varying compound concentration. F measured at [Ca^2+]MAX (saturating, pCa 5.4) or [Ca^2+]MID (subsaturating, midpoint, pCa 6.2) was corrected by subtracting the basal rate at pCa 8.0) and the % effect due to compound was reported. Concentration response curves (CRC) were fitted using the Hill function to determine VMAX (the activity at saturating [compound]), and EC50, the compound concentration at 50% effect.

SERCA2a [2] = biological target: T1, SERCA2a; assay: NADH-linked Ca2+-ATPase activity assay in pig cardiac SR (pCSR) vesicles; assay type: biochemical; conditions: for Ca2+-ATPase C10: concentration yielding 10% effect; for Ca2+-ATPase ΔFMAX / Ca2+-ATPase ΔFMID: maximal compound effect vs DMSO control, pCSR; for Effect on Ca2+-ATPase activity (category, Fig. 4A): activators, categories activate / uncouple / inhibit
Description: as §1
Functional assays were performed using porcine cardiac SR (pCSR) vesicles. An enzyme-coupled, NADH-linked ATPase assay was used to measure SERCA ATPase activity in 384-well microplates. Each well contained 50 mM MOPS (pH 7.0), 100 mM KCl, 1 mM EGTA, 0.2 mM NADH, 1 mM phosphoenol pyruvate, 10 IU/mL of pyruvate kinase, 10 IU/mL of lactate dehydrogenase, 7 µM of the calcium ionophore A23187 (Sigma), and CaCl2 was added to set free [Ca^2+] to three different concentrations. Ca^2+-ATPase activity was measured at three [Ca^2+]: [Ca^2+]MAX (saturating, pCa 5.4), [Ca^2+]MID (subsaturating, midpoint, pCa 6.2), and [Ca^2+]BAS (basal non-activating, pCa 8.0). 10 μg/mL of SR vesicle, calcium, compound (0.048 to 50 μM), and assay mix were incubated for 20 min at room temperature before measurement of functional assays with each of the 18 hit compounds, because a shorter incubation time than the FRET live-cell assays achieved optimal responses. The assay was started upon the addition of MgATP, at a final concentration of 5 mM (total volume to 80 μL), and absorbance was read at 340 nm in a SpectraMax Plus^384 microplate spectrophotometer (Molecular Devices, Sunnyvale, CA).
as §2

[3] = biological target: T2, human two-color SERCA2a (2CS) biosensor (Homo sapiens, UniProt P16615, INS508[…]); assay: FRET concentration response curves (FLT-FRET) with the 2CS biosensor in live HEK cells; assay type: cell-based
T2 construct: expressed in transfected cells
T2 sequence (P16615 other isoform, or with tags, fused parts or gaps with the stated changes): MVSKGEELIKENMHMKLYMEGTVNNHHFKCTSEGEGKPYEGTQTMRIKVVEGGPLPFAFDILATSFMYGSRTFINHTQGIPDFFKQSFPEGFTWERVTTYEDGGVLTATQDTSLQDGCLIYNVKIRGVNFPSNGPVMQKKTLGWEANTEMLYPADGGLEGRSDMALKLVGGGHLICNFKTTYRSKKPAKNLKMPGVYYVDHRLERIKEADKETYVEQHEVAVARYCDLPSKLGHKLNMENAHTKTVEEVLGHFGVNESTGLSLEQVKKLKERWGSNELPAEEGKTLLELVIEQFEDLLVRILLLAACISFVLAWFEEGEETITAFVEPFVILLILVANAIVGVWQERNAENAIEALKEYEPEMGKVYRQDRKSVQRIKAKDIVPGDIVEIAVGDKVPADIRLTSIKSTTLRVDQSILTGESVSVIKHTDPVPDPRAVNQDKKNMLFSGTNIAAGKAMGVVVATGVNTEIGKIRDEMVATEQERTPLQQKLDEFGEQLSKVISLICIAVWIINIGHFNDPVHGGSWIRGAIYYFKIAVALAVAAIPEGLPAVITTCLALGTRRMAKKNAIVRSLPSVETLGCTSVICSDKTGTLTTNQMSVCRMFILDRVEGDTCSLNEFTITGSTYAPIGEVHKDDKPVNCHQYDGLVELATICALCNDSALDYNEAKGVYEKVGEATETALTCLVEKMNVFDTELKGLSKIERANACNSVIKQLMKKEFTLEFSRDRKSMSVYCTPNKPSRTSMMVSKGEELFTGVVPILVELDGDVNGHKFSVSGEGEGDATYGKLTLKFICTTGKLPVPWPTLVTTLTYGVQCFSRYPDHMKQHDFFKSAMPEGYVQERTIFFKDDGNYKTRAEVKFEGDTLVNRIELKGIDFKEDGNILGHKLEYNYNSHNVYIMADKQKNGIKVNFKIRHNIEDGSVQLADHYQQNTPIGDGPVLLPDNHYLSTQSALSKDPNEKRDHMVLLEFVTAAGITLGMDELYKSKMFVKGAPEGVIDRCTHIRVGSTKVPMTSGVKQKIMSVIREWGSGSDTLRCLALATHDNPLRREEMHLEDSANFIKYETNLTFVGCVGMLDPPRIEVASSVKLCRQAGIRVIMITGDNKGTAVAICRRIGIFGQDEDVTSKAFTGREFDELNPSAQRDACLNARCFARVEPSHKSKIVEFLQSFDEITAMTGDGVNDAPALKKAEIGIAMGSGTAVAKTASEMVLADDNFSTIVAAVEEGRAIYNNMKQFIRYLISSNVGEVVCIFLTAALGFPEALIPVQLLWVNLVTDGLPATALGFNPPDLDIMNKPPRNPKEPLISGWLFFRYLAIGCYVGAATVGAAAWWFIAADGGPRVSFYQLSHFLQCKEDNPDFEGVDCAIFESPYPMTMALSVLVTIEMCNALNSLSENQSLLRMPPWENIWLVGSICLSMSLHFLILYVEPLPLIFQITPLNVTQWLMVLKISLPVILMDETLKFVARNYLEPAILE
Description: A two-color intramolecular human SERCA2a (2CS) biosensor, based on human cardiac SERCA2a fused to green fluorescent protein (eGFP) and red fluorescent protein (tagRFP) was developed to detect structural changes that are related to the functional changes of SERCA[20],[22],[25]. Briefly, tagRFP was genetically fused to the N-terminus of SERCA (A-domain) and eGFP was inserted as an intrasequence tag before residue 509 in the nucleotide-binding domain (N-domain)[60],[61]. Donor-only and acceptor-only (1CS) biosensors were created in a similar manner as the 2CS biosensor but with the construct containing either only eGFP or only tag-RFP, respectively. […] A null-biosensor construct consisting of eGFP and tagRFP connected by a 32-residue unstructured flexible linker peptide (G32R) was created as described previously[23],[25]. All constructs were cloned into expression vectors containing the genes for antibiotic resistance to G418, puromycin, or blasticidin.
Stable cell lines were generated using either human embryonic kidney (HEK) HEK293 (ATCC, Manassas, VA) or HEK293-6E (National Research Council, Canada) cells. Briefly, cells were transiently transfected with 2CS, 1CS, or G32R null-biosensor plasmids using Lipofecatime 3000 or 293fectin (Thermo Fisher Scientific). Flow cytometry was used to select and enrich for the population of cells expressing respective biosensors. Stable HEK293 cell lines were maintained in phenol red-free DMEM media (Gibco, Waltham, MA) supplemented with 2 mM GlutaMAX (Gibco, Waltham, MA), 10% fetal bovine serum (FBS) (Atlanta Biologicals, Lawrenceville, GA), 1 IU/mL penicillin/streptomycin (Gibco, Waltham, MA), and 250 μg/mL G418 (Fisher Scientific). Stable HEK293-6E cell lines were maintained in F17 media (Sigma Aldrich) supplemented with Kolliphor p188 (Sigma Aldrich, St. Louis, MO), […] GlutaMAX, and either 1 μg/mL puromycin (Invitrogen, Carlsbad, CA) or 2 μg/mL blasticidin (Goldbio) as a selection antibiotic. All cell lines were grown at 37 °C with 5% CO2.
FRET CRC assay plates (0.78–100 μM compound range) with at least ten different compound concentrations were made by adding the appropriate volume of compound or DMSO into black 384 well plates (Greiner Bio-One) using a Mosquito HV (SPTLabTech, United Kingdom). Subsequent Ca^2+-ATPase activity and Ca^2+-transport CRC assay plates (0–50 μM compound range) with repurchased compounds were made in a similar manner using with the Echo 550 (Beckman Coulter) using either 384 well transparent plates (Greiner Bio-One) or black-walled plates with transparent bottoms (Greiner Bio-One), respectively.
On each day of screening, cells were harvested, washed three times with PBS, and centrifuged at 300 g for 5 min. Cells were filtered using a 70 µm cell strainer and diluted to 1–2 × 10^6 cells/mL. Cell concentration and viability were assessed using the Cell countess (Invitrogen) and trypan blue assay. During assays, cells were constantly and gently stirred using a magnetic stir bar at room temperature, keeping the cells in suspension and evenly distributed to avoid clumping. HEK 293-cells expressing 2CS were dispensed at 5 μL or […] per well into assay plates (dispensed into 40 assay plates, each containing 1536 wells) pre-plated with compounds (from a DIVERset 50,000 compound library) using a Multdrop Combi liquid dispenser (Thermo Fisher Scientific, Pittsburg, PA) and sealed until needed. Because the kinetics of membrane permeability, diffusion, and/or binding of the compound to live cells may be compound-dependent, we tested two incubation times, 20 min and 120 min, for the FRET CRC. […] Plates containing eight-point concentration curves of three tool compounds (known SERCA effectors thapsigargin, BHQ, and CPA)[22] were used as positive controls for biosensor function and performance prior to running the full-scale FRET-HTS assay. […]

[4] = [Ca2+]MID (pCa6.2), maximal compound effect vs DMSO control, pCSR

| SMILES | Ca2+-Uptake C10 (SERCA2a [1]; [Ca2+]MAX (pCa5.4)) [µM] | Ca2+-Uptake C10 (SERCA2a [1]; [Ca2+]MID (pCa6.2)) [µM] | CR (coupling ratio) VU/VA (SERCA2a [1]) | Inhibition of Ca2+-uptake (class) (SERCA2a [1]; strong / moderate / mild) | Ca2+-ATPase C10 (SERCA2a [2]; [Ca2+]MAX (pCa5.4)) [µM] | Ca2+-ATPase C10 (SERCA2a [2]; [Ca2+]MID (pCa6.2)) [µM] | EC50 [3] [µM] | Decrease (inhibition) of Ca2+-uptake at [Ca2+]MAX (SERCA2a [1]; [Ca2+]MAX, size of decrease) [%] | Ca2+-Uptake ΔFMID (SERCA2a [1]; [4]) | Effect on Ca2+-uptake (category, Fig. 4A) (SERCA2a [1]) | Increase in Ca2+-ATPase activity (SERCA2a [2]) | Ca2+-ATPase ΔFMAX (SERCA2a [2]; [Ca2+]MAX (pCa5.4)) [%] | Ca2+-ATPase ΔFMID (SERCA2a [2]; [Ca2+]MID (pCa6.2)) [%] | Effect on Ca2+-ATPase activity (category, Fig. 4A) (SERCA2a [2]) | Ca2+-Uptake ΔFMAX (SERCA2a [1]; [Ca2+]MAX (pCa5.4), maximal compound effect vs DMSO control, pCSR) | Increase in Ca2+-uptake (SERCA2a [1]; over [Ca2+]MAX and [Ca2+]MID) | EC50 (SERCA2a [2]; [Ca2+]MAX (pCa5.4)) [µM] |
| --- | --- | --- | --- | --- | --- | --- | --- | --- | --- | --- | --- | --- | --- | --- | --- | --- | --- |
| CCc1cnc(N2CC[C@@H](c3ccc4ccccc4c3)[C@H](O)C2)nc1 (relative stereo) [Compound 16, (3S*,4S*)-1-(5-ethylpyrimidin-2-yl)-4-(2-naphthyl)piperidin-3-ol] | 1.2 | 4.2 | 0.22 | M → S; also recorded: moderate-to-strong | 0.5 | 4.7 | 5.6 ± 0.3 |  |  |  |  |  |  |  |  |  |  |
| Cc1cnc(C)c(N2CCN(C(=O)c3cc(COc4ccc5ncccc5c4)on3)CC2)n1 [Compound 1, 6-[(3-{[4-(3,6-dimethyl-2-pyrazinyl)-1-piperazinyl]carbonyl}-5-isoxazolyl)methoxy]quinoline] | 50 |  | 0.49 |  |  |  |  | 10 | 2% and 2 ± 1.0% | inhibit | 10–25% | 8 ± 6.3 | 8 ± 5.8 | activate |  |  |  |
| c1ccc(-c2cc(CN3CCN(c4ncnc5ccccc45)CC3)on2)cc1 [Compound 4, 4-{4-[(3-phenyl-5-isoxazolyl)methyl]-1-piperazinyl}quinazoline] |  | 47 | 0.51 |  | 50.0 | 39.2 |  |  | 11% and 11 ± 2.7% | uncouple |  | 10 ± 5.3 | 11 ± 6.1 | activate | 0.5% and 0.5 ± 3.2% | 0.5–10% | 15 ± 7.2 |
